Source: patent US20220273793A1, “HORSE IL-31 INDUCED PRURITUS MODEL” (priority 2021, published 2022)
Where “and” joins values, the source holds several entries; their conditions need not be identical. Equal entries are not always repeated.

System: equine IL-31
Assay: Equine challenge study using the IL-31 itch model after IL-31 mimotope vaccines
Format: in vivo, Horse
Conditions: for 1st Challenge Score (pruritus score): CRM197 conjugate 25 μg/dose, SP oil + CpG, IL-31 challenge Day 14 post-boost; for 1st Challenge Score (pruritus score) / Percent Change, 1st Challenge vs Historical Score / Percent Change, 2nd Challenge vs Historical Score / 2nd Challenge Score (pruritus score): individual horses; for 1st Challenge Average % Change in pruritus scores / Percent Change, 1st Challenge vs Historical Score: Day 14 post-boost; for 1st Challenge Average % Change in pruritus scores / 2nd Challenge Average % Change in pruritus scores: group mean; for 2nd Challenge Average % Change in pruritus scores / Percent Change, 2nd Challenge vs Historical Score: Day 105 post-boost; for 2nd Challenge Score (pruritus score): IL-31 challenge Day 105 post-boost
Text: Based on the high antibody titers elicited by horses vaccinated with CRM197 conjugated IL 31 mimotopes (FIG. 4), horses from the serology studies were utilized in a challenge study using the IL-31 itch model developed by the present inventors. Selected horses were vaccinated with an additional boost of the corresponding mimotope vaccines, after conclusion of the serology study, and were challenged with IL-31 at Day 14 after the final boost and at Day 105 after the final boost.
Various candidate IL-31 mimotope constructs were evaluated, including ZTS-7240 (comprising SEQ ID NO:4) mimotope (constrained) corresponding to the 1505 region and ZTS-241 (comprising SEQ ID NO:6) mimotope (linear) corresponding to the A helix of the IL-31 homology model (FIG. 2). Study design is outlined in Table 6 below:
There were no treatment groups T02 and T04 assigned in this study in order to continue to keep the group designations of respective horses from the first serology study. One horse each from treatment groups T02 and T04 from the first serology were used in treatment group T08 as negative controls (No booster dose given; challenged on Day 14 and Day 105 along with other treatment groups).

Chain of equine IL-31 (as listed by the source): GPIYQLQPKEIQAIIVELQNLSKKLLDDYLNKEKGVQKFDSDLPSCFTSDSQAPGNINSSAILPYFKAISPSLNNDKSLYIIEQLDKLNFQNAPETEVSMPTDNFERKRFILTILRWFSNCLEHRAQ

Substance	1st Challenge Score (pruritus score) (T03, T05, T06, T07: IM)	1st Challenge Average % Change in pruritus scores (T03, T05, T06, T07: IM)	Percent Change, 1st Challenge vs Historical Score (T03, T05, T06, T07: IM)	2nd Challenge Average % Change in pruritus scores (T03, T05, T06, T07: IM)	Percent Change, 2nd Challenge vs Historical Score (T03, T05, T06, T07: IM)	2nd Challenge Score (pruritus score) (T03, T05, T06, T07: IM)	reduction in itch (relative to historic scores) (vaccinated horses, after 105 days of the final booster dose)	1st Challenge Score (pruritus score) (T01, SC)	1st Challenge Average % Change in pruritus scores (T01, SC)	Percent Change, 1st Challenge vs Historical Score (T01, SC)	2nd Challenge Average % Change in pruritus scores (T01, SC)	Percent Change, 2nd Challenge vs Historical Score (T01, SC)	2nd Challenge Score (pruritus score) (T01, SC)
Ac-CGSGKEKGVQKFDS-NH2 (not fully specified; printed as Ac-CGSGKEKGVQKFDS-NH2; numbers in words are those of the source; also: CRM197 conjugate) [ZTS-7242, tested as CRM197 conjugate with SP oil + CpG]	53 and 45 and 54	−20.58%	−23.96% and −17.43% and −20.35%	46.28%	22.94% and 69.62%	67 and 115							
Ac-CGSGGPIYQLQPKEIQAIIVELQNLSKK-NH2 (not fully specified; printed as Ac-CGSGGPIYQLQPKEIQAIIVELQNLSKK-NH2; numbers in words are those of the source; also: CRM197 conjugate) [ZTS-7241, tested as CRM197 conjugate with SP oil + CpG]	12 and 5 and 38	−82.18%	−86.44% and −94.87% and −65.23%	−68.70%	−87.57% and −48.72% and −69.81%	11 and 50 and 33	68%						
Ac-CGSGNSSAILPYFKAISPSLNNDKSLYIIEQLDKLNF-NH2 (not fully specified; printed as Ac-CGSGNSSAILPYFKAISPSLNNDKSLYIIEQLDKLNF-NH2; numbers in words are those of the source; also: CRM197 conjugate) [ZTS-765, tested as CRM197 conjugate with SP oil + CpG]	4 and 33 and 21	−77.62%	−94.54% and −66.33% and −72.00%	−45.03%	−23.60% and −40.82% and −70.67%	56 and 58 and 22		17 and 11	−82.12%	−74.81% and −89.42%	−25.88%	−39.26% and −12.50%	41 and 91
